The text below walks through data of patent US20240279227A1, “FUSED HETEROCYCLIC DERIVATIVES” (Janssen Sciences Ireland Unlimited Company, priority 2021, published 2024).

What is called CC50 is the concentration at which the toxic effect on the cells reaches its halfway point. One may read the EC50 as the concentration that produces a half-maximal response.

The test system of one data set is HepG2 or HepG2.117 cells. As to the kind of experiment: Cytotoxicity, ATPlite Luminescence Assay. The class given is cell-based, human. Particulars: 3-days incubation unless marked with *, ATPlite viability. In a few lines:
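Luminescent ATP quantitation served as the viability endpoint following a 3- or 4-day incubation with test compounds.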

The test system of another data set is HBV. As to the kind of experiment: Anti-HBV activity in HepG2.117 cell line (intracellular HBV DNA, real-time PCR). The class given is cell-based, hepatitis B virus. Particulars: HepG2.117 cells, HBV replication induced, 3 days of treatment, intracellular HBV DNA by real-time PCR. The gist of the method: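 HepG2.117 cells (Tet-off, doxycycline-free HBV replication) induced for HBV replication, then exposed to serially diluted compound for 3 days. Intracellular HBV DNA quantified by real-time PCR with HBV-specific primers and probe.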

Data set [1] in a line: Human liver microsome stability. The class given is in vitro ADME. Particulars: 1 μM compound, NADPH 1 mM, pH 7.4, 37° C., 0-60 min; for HLM Metabolism t1/2: pooled human liver microsomes 0.5 mg/mL; for half-life at 1 μM: human, pooled human liver microsomes, pH 7.4, pooled human liver microsomes 0.5 mg/mL, read-out: HLM Metabolism t1/2. In a few lines:
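Pooled human liver microsomes (0.5 mg/mL) incubated at 37 °C with 1 μM compound in 0.1 M phosphate pH 7.4, 1 mM MgCl2; 1 mM NADPH starts reaction. Samples quenched in acetonitrile at 0–60 min, analysed by LC-MS against internal standard; half-life from slope of ln peak-area ratio versus time.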
For orientation: Liver microsomes are vesicles of endoplasmic reticulum, rich in cytochrome P450 enzymes.

The molecule `CNC(=O)[C@@H]1CN(C(C)c2ccc(N3CCCC3=O)nc2)C(=O)c2c3c(nn21)C[C@@H](C)N(C(=O)c1ccc(Cl)c(Cl)c1)C3` (relative stereo) [Compound 34B, (3R,7S)-2-(3,4-dichlorobenzoyl)-N,3-dimethyl-O-oxo-9-((S*)-1-(6-(2-oxopyrrolidin-1-yl)pyridin-3-yl)ethyl)-1,2,3,4,7,8,9,10-octahydropyrido[4′,3′:3,4]pyrazolo[1,5-a]pyrazine-7-carboxamide] gave a CC50 in the data set on HepG2 or HepG2.117 cells greater than 50 µM. The same molecule returned an EC50 in the data set with HBV of 0.049 µM. For the same molecule, the “HLM Metabolism t1/2” value in data set [1] is greater than 3 h.

Consider `CNC(=O)[C@@H]1CN(C(C)c2ccc(-n3cncn3)cc2)C(=O)c2c3c(nn21)C[C@@H](C)N(C(=O)c1ccc(Cl)c(Cl)c1)C3` (single isomer, unassigned) [Compound 2B, (3R,7S)-9-((S*)-1-(4-(1H-1,2,4-triazol-1-yl)phenyl)ethyl)-2-(3,4-dichlorobenzoyl)-N,3-dimethyl-10-oxo-1,2,3,4,7,8,9,10-octahydropyrido[4′,3′:3,4]pyrazolo[1,5-a]pyrazine-7-carboxamide], for which, in the data set with HepG2 or HepG2.117 cells, the CC50 was greater than 50 µM. In addition, in the data set with HBV, the EC50 came out at 0.017 µM. Further, the “HLM Metabolism t1/2” value in data set [1] was greater than 3 h.

`CNC(=O)[C@@H]1CN(C(C)c2ccc(OC(F)F)nc2)C(=O)c2c3c(nn21)C[C@@H](C)N(C(=O)c1ccc(Cl)c(Cl)c1)C3` (single isomer, unassigned) [Compound 11A, (3R,7S)-2-(3,4-Dichlorobenzoyl)-9-((R*)-1-(6-(difluoromethoxy)pyridin-3-yl)ethyl)-N,3-dimethyl-10-oxo-1,2,3,4,7,8,9,10-octahydropyrido[4′,3′:3,4]pyrazolo[1,5-a]pyrazine-7-carboxamide]: in the data set on HepG2 or HepG2.117 cells, the CC50 was greater than 50 µM. The concentration giving a half-maximal response (EC50) in the data set on HBV was 0.12 µM. Besides, in data set [1], the half-life at 1 μM was greater than 3 h.

In the data set on HepG2 or HepG2.117 cells, `CNC(=O)[C@@H]1CN(C(C)c2ccc(OC(F)F)nc2)C(=O)c2c3c(nn21)C[C@@H](C)N(C(=O)c1ccc(Cl)c(Cl)c1)C3` (single isomer, unassigned) [Compound 11B, (3R,7S)-2-(3,4-dichlorobenzoyl)-9-((S*)-1-(6-(difluoromethoxy)pyridin-3-yl)ethyl)-N,3-dimethyl-10-oxo-1,2,3,4,7,8,9,10-octahydropyrido[4′,3′:3,4]pyrazolo[1,5-a]pyrazine-7-carboxamide] displayed a cytotoxic concentration (CC50) of 23.4 µM. In the data set with HBV, this molecule showed an EC50 of 0.052 µM. In addition, in data set [1], the “HLM Metabolism t1/2” value was greater than 3 h.

Take `CC(c1ccc(OC(F)F)nc1)N1C[C@@H](C(N)=O)n2nc3c(c2C1=O)CN(C(=O)c1ccc(Cl)c(Cl)c1)[C@H](C)C3` (single isomer, unassigned) [Compound 12B, (3R,7S)-2-(3,4-dichlorobenzoyl)-9-((S*)-1-(6-(difluoromethoxy)pyridin-3-yl)ethyl)-3-methyl-10-oxo-1,2,3,4,7,8,9,10-octahydropyrido[4′,3′:3,4]pyrazolo[1,5-a]pyrazine-7-carboxamide]: the CC50 in the data set with HepG2 or HepG2.117 cells was 27.4 µM. In the data set on HBV, this molecule had an EC50 of 0.027 µM. Further, in data set [1], the “HLM Metabolism t1/2” value was greater than 3 h.

The molecule `CNC(=O)[C@@H]1CN(C(C)c2ccc(S(C)(=O)=O)cc2)C(=O)c2c3c(nn21)C[C@@H](C)N(C(=O)c1ccc(Cl)c(C(F)(F)F)c1)C3` (single isomer, unassigned) [Compound 19B, (3R,7S)-2-(4-chloro-3-(trifluoromethyl)benzoyl)-N,3-dimethyl-9-((S*)-1-(4-(methylsulfonyl)phenyl)ethyl)-10-oxo-1,2,3,4,7,8,9,10-octahydropyrido[4′,3′:3,4]pyrazolo[1,5-a]pyrazine-7-carboxamide] registered a CC50 in the data set with HepG2 or HepG2.117 cells greater than 50 µM. Moreover, a half-maximal response in the data set on HBV (EC50) required 0.028 µM. Further, the “HLM Metabolism t1/2” value in data set [1] was greater than 3 h.

In the data set on HepG2 or HepG2.117 cells, `CNC(=O)[C@@H]1CN(C(C)c2ccc(S(=O)(=O)C3CC3)cc2)C(=O)c2c3c(nn21)C[C@@H](C)N(C(=O)c1ccc(Cl)c(C(F)(F)F)c1)C3` (single isomer, unassigned) [Compound 20B, (3R,7S)-2-(4-Chloro-3-(trifluoromethyl)benzoyl)-9-((S*)-1-(4-(cyclopropylsulfonyl)phenyl)ethyl)-N,3-dimethyl-10-oxo-1,2,3,4,7,8,9,10-octahydropyrido[4′,3′:3,4]pyrazolo[1,5-a]pyrazine-7-carboxamide] returned a CC50 greater than 50 µM. This molecule also showed an EC50 in the data set on HBV of 0.022 µM. Further, the “HLM Metabolism t1/2” value in data set [1] was greater than 3 h.

Regarding `CCC(c1ccc(S(C)(=O)=O)cc1)N1C[C@@H](C(=O)NC)n2nc3c(c2C1=O)CN(C(=O)c1ccc(Cl)c(Cl)c1)[C@H](C)C3` (single isomer, unassigned) [Compound 22B, (3R,7S)-2-(3,4-dichlorobenzoyl)-N,3-dimethyl-9-((S*)-1-(4-(methylsulfonyl)phenyl)propyl)-10-oxo-1,2,3,4,7,8,9,10-octahydropyrido[4′,3′:3,4]pyrazolo[1,5-a]pyrazine-7-carboxamide], in the data set on HepG2 or HepG2.117 cells, the CC50 is greater than 50 µM. The same molecule showed an EC50 in the data set with HBV of 0.05 µM. For the same molecule, in data set [1], the “HLM Metabolism t1/2” value was greater than 3 h.

`CNC(=O)[C@@H]1CN(C(C)c2ccc(C#N)cc2)C(=O)c2c3c(nn21)C[C@@H](C)N(C(=O)c1ccc(Cl)c(Cl)c1)C3` (single isomer, unassigned) [Compound 23B, (3R,7S)-9-((S*)-1-(4-cyanophenyl)ethyl)-2-(3,4-dichlorobenzoyl)-N,3-dimethyl-10-oxo-1,2,3,4,7,8,9,10-octahydropyrido[4′,3′:3,4]pyrazolo[1,5-a]pyrazine-7-carboxamide] returned a half-maximal cytotoxic concentration (CC50) in the data set with HepG2 or HepG2.117 cells greater than 50 µM. Besides, a half-maximal effect with HBV (EC50) was put at 0.023 µM. The “HLM Metabolism t1/2” value in data set [1] is greater than 3 h.

Molecule `CNC(=O)[C@@H]1CN(C(C)c2ccc(OC(F)F)c(F)c2)C(=O)c2c3c(nn21)C[C@@H](C)N(C(=O)c1ccc(Cl)c(Cl)c1)C3` (single isomer, unassigned) [Compound 24B, (3R,7S)-2-(3,4-dichlorobenzoyl)-9-((S*)-1-(4-(difluoromethoxy)-3-fluorophenyl)ethyl)-N,3-dimethyl-10-oxo-1,2,3,4,7,8,9,10-octahydropyrido[4′,3′:3,4]pyrazolo[1,5-a]pyrazine-7-carboxamide] had a CC50 in the data set on HepG2 or HepG2.117 cells of 25.5 µM. The molecule also had an EC50 in the data set on HBV of 0.013 µM. For the same molecule, the “HLM Metabolism t1/2” value in data set [1] is greater than 3 h.

On to `CC(c1ccc(OC(F)F)cc1)N1C[C@@H](C(=O)NC2CC2)n2nc3c(c2C1=O)CN(C(=O)c1ccc(Cl)c(C#N)c1)[C@H](C)C3` (single isomer, unassigned) [Compound 26B, (3R,7S)-2-(4-chloro-3-cyanobenzoyl)-N-cyclopropyl-9-((S*)-1-(4-(difluoromethoxy)phenyl)ethyl)-3-methyl-10-oxo-1,2,3,4,7,8,9,10-octahydropyrido[4′,3′:3,4]pyrazolo[1,5-a]pyrazine-7-carboxamide], for which, in the data set on HepG2 or HepG2.117 cells, the cytotoxic concentration (CC50) is greater than 50 µM. In addition, the midpoint of the response in the data set with HBV, the EC50, lay at 0.09 µM. In data set [1], the “HLM Metabolism t1/2” value was determined as 1.12 h.

For `CNC(=O)[C@@H]1CN(C(C)c2ccc(-c3nnnn3C)cc2)C(=O)c2c3c(nn21)C[C@@H](C)N(C(=O)c1ccc(Cl)c(Cl)c1)C3` (single isomer, unassigned) [Compound 29B, (3R,7S)-2-(3,4-dichlorobenzoyl)-N,3-dimethyl-9-((S*)-1-(4-(1-methyl-1H-tetrazol-5-yl)phenyl)ethyl)-10-oxo-1,2,3,4,7,8,9,10-octahydropyrido[4′,3′:3,4]pyrazolo[1,5-a]pyrazine-7-carboxamide], the CC50 in the data set with HepG2 or HepG2.117 cells was greater than 50 µM. The EC50 in the data set on HBV was determined as 0.082 µM. Moreover, in data set [1], the “HLM Metabolism t1/2” value was greater than 3 h.

Consider `CNC(=O)[C@@H]1CN(C(C)c2ccc(-n3nnc(C)n3)cc2)C(=O)c2c3c(nn21)C[C@@H](C)N(C(=O)c1ccc(Cl)c(Cl)c1)C3` (single isomer, unassigned) [Compound 30A, (3R,7S)-2-(3,4-Dichlorobenzoyl)-N,3-dimethyl-9-((R*)-1-(4-(5-methyl-2H-tetrazol-2-yl)phenyl)ethyl)-10-oxo-1,2,3,4,7,8,9,10-octahydropyrido[4′,3′:3,4]pyrazolo[1,5-a]pyrazine-7-carboxamide], for which the CC50 in the data set on HepG2 or HepG2.117 cells is greater than 50 µM. In the data set on HBV (Hepatitis B virus, HepG2.117, 72 h), this molecule came in with an EC50 of 0.016 µM. The half-life at 1 μM in data set [1] is greater than 3 h.

For the molecule `CNC(=O)[C@@H]1CN(C(C)c2ccc(-n3nnc(C)n3)cc2)C(=O)c2c3c(nn21)C[C@@H](C)N(C(=O)c1ccc(Cl)c(Cl)c1)C3` (single isomer, unassigned) [Compound 30B, (3R,7S)-2-(3,4-dichlorobenzoyl)-N,3-dimethyl-9-((S*)-1-(4-(5-methyl-2H-tetrazol-2-yl)phenyl)ethyl)-10-oxo-1,2,3,4,7,8,9,10-octahydropyrido[4′,3′:3,4]pyrazolo[1,5-a]pyrazine-7-carboxamide], the CC50 with HepG2 or HepG2.117 cells amounted to 17.2 µM. The same molecule gave a half-maximal effective concentration (EC50) with HBV of 0.017 µM. Also, the “HLM Metabolism t1/2” value in data set [1] was 1.52 h.

For `CNC(=O)[C@@H]1CN(C(C)c2ccc(OC)nc2)C(=O)c2c3c(nn21)C[C@@H](C)N(C(=O)c1ccc(Cl)c(Cl)c1)C3` (single isomer, unassigned) [Compound 31B, (3R,7S)-2-(3,4-dichlorobenzoyl)-9-((S*)-1-(6-methoxypyridin-3-yl)ethyl)-N,3-dimethyl-10-oxo-1,2,3,4,7,8,9,10-octahydropyrido[4′,3′:3,4]pyrazolo[1,5-a]pyrazine-7-carboxamide], in the data set on HepG2 or HepG2.117 cells, the CC50 is greater than 50 µM. Also, in the data set with HBV, the response was half-maximal at 0.018 µM (EC50). For the same molecule, in data set [1], the “HLM Metabolism t1/2” value is greater than 3 h.
